Assays:
anesthetized guinea-pig = assay: Cardiovascular effects in the anaesthetized guinea-pig; format: in vivo; conditions: guinea pig, 0.02 mg/kg i.v. over 1 min, 15 min after onset of last vehicle infusion
Experimental: Female guinea-pigs were anesthetized with sodium pentobarbital (66 mg/kg i.p.) followed by a continuous i.v. infusion of 6 mg/h of sodium pentobarbital and prepared for measurements of the surface electrocardiogram (ECG), heart rate and mean arterial blood pressure (see De Clerck et al, Fundam. Clin. Pharm.; 2002; 16: 125-140). Compound (−)-17 was dissolved in 20% hydroxypropyl-cyclodextrin with NaOH, HCl and mannitol in pyrogen-free water and administered intravenously (0.5 ml/kg) in increasing doses (0.16, 0.32, 0.64, 1.25, 2.5 and 5 mg/kg) over a period of 5 min at 15-min intervals. Plasma concentrations of Compound (−)-17 were measured at the end of each infusion. Corresponding volumes of vehicle were administered according to the same protocol in a second group of animals.

D2L = target: T1, D2L (Homo sapiens, UniProt P14416); assay: Competitive radioligand binding, D2L; conditions: CHO membranes, 3H-spiperone 0.2 nM; read-out: pIC50 D2L (converted)
T1 construct: expressed in transfected cells; host or cells: CHO (membrane fraction)
T1 sequence (P14416 whole entry): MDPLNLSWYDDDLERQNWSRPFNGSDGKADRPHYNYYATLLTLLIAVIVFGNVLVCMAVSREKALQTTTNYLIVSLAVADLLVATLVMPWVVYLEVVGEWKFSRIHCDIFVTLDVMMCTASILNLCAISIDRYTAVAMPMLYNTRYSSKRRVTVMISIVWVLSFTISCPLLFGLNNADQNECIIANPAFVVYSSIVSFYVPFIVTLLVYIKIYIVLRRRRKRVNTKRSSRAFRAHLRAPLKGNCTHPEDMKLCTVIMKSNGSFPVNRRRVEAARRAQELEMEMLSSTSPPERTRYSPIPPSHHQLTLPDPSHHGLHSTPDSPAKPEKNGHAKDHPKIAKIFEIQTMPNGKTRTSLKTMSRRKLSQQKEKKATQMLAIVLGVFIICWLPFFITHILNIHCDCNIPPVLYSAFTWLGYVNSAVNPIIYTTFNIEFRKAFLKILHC
Experimental: (§1) Competitive radioligand binding assays were used to determine the affinity of the test compounds for a particular receptor. Various concentrations of the non-labelled test compound were added to the incubation mixture with the membrane fraction, containing the receptor of interest, and a fixed low concentration (nM) of the radioligand. During the incubation the radioligand bound to the receptor, but this was inhibited by the non-labelled test compound in proportion to its binding affinity and concentration.
(§2) Cell lines were established that stably express the human variant of the receptor under investigation after transfection with the appropriate cDNA (Table 1). Transfected cells were grown under standard culture conditions, and membrane fractions were obtained upon centrifugation and homogenisation of the cells. Optimal membrane dilutions for binding studies were determined and aliquots were stored at −70° C. until use. In a 96-well plate format, the appropriate radioligand was added to the membrane preparation containing the receptor under investigation. Compound solutions were prepared in DMSO, and diluted 100-fold into the multiwell plate to a final test concentration of 10^−9 to 10^−5 M. After incubation with the test compound, the unbound radioligand was removed by filtration on G/F filters with a Filtermate 96. Microscint™ was added to the washed filter plates and the radioactivity bound to the receptor was measured by liquid scintillation counting in a TopCount (Packard). To measure the Non-Specific Binding (NSB), a high concentration of the non-radiolabeled ligand was added to wells containing the membrane fraction and the radioligand.
(§3) Using in house developed software, a best-fit curve was fitted by a minimum sum of squares method to the plot of % inhibition vs. concentration of the test compound. From this, the pIC50 value (inhibitory concentration causing 50% displacement of specific binding) was determined, as well as an estimate of the slope of the plot (Hill coefficient).

5HT1A = target: T2, 5HT1A (Homo sapiens, UniProt P08908); assay: Competitive radioligand binding, 5HT1A; conditions: HEK293 membranes, 3H-8-OH-DPAT 0.5 nM; read-out: pIC50 5HT1A (converted)
T2 construct: expressed in transfected cells; host or cells: HEK293 (membrane fraction)
T2 sequence (P08908 1-422): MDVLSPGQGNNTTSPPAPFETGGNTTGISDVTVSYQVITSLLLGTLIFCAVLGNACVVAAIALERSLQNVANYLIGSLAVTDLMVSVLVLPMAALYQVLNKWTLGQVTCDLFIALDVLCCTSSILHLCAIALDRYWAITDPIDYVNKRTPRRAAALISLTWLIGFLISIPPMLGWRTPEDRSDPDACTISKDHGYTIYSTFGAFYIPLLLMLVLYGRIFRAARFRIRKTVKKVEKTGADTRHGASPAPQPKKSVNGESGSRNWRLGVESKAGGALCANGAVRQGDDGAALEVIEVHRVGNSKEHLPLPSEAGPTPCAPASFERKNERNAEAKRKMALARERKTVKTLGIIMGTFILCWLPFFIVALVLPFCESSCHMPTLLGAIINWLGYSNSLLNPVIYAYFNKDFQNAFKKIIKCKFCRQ
Experimental: as §1, §2, §3

5HT3A/B = target: T3, 5HT3A/B (Homo sapiens, UniProt O95264+P46098); assay: Competitive radioligand binding, 5HT3A/B; conditions: HEK293 membranes, 3H-GR65630 0.5 nM; read-out: pIC50 5HT3A/B (converted)
T3 construct: expressed in transfected cells; host or cells: HEK293 (membrane fraction)
T3 sequence (P46098 24-478): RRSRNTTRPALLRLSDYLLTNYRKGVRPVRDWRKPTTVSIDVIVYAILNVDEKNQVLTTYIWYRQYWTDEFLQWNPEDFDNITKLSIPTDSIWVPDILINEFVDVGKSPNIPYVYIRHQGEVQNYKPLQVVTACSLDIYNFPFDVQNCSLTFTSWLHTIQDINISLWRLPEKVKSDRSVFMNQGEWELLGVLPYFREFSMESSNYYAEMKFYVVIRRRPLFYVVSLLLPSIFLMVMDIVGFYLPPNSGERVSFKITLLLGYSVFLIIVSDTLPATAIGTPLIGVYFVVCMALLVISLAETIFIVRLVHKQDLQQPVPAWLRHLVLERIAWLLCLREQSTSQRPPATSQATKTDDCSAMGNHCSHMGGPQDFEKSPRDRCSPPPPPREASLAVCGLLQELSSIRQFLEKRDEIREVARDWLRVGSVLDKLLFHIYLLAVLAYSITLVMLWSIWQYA
T3 sequence (O95264 22-441): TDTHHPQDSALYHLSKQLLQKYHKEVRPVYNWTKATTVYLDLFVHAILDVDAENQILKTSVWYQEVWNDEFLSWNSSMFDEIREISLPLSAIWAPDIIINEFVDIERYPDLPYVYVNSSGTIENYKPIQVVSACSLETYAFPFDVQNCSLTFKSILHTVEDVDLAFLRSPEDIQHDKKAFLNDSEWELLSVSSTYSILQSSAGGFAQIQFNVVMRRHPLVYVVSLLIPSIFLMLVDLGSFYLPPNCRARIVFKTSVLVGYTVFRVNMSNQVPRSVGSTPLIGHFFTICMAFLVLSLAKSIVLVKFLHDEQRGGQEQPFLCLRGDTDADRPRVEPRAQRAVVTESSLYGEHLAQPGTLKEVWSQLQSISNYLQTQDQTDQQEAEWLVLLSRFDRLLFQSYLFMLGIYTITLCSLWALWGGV
Experimental: as §1, §2, §3

Alpha1A = target: T4, Alpha1A (Homo sapiens, UniProt P35348); assay: Competitive radioligand binding, Alpha1A; conditions: CHO membranes, 3H-prazosin 0.25 nM; read-out: pIC50 Alpha1A (converted)
T4 construct: expressed in transfected cells; host or cells: CHO (membrane fraction)
T4 sequence (P35348 1-466): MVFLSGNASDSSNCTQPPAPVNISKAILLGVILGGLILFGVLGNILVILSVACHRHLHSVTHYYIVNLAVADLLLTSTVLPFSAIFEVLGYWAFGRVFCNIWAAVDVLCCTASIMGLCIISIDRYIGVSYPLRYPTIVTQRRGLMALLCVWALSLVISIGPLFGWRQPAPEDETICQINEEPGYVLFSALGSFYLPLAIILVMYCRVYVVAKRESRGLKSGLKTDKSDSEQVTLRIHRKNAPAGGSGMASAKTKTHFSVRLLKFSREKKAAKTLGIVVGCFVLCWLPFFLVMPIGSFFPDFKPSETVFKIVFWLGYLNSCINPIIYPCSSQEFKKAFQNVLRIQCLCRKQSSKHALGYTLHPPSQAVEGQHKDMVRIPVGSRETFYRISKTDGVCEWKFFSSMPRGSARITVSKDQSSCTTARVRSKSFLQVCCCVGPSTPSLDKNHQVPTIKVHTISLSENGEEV
Experimental: as §1, §2, §3

IC50 (D2L) | IC50 (5HT1A) | IC50 (5HT3A/B) | IC50 (Alpha1A) | Compound | heart rate (anesthetized guinea-pig)
 |  |  |  | CN(CCOc1ccc(NS(C)(=O)=O)cc1)CCc1ccc(NS(C)(=O)=O)cc1 [dofetilide, reference compound] | decreased
537 nM | 1950 nM | 1150 nM | 407 nM | COc1cc(N)c(Cl)cc1C(=O)NC1CCN(CCCOc2ccc(F)cc2)CC1OC (centres unmarked) [Cisapride, reference compound] | 

From patent publication US9139523B2, “5-HT2B receptor antagonists” (Janssen Pharmaceutica, NV, priority 2010, dated 2015)
